Our source for the T/C values is PubChem BioAssay AID330 (DTP/NCI, 2004).

Where “and” joins values, the source holds several entries; their conditions need not be identical. Identical values can stand only once. Toxic doses and inconclusive results are not listed.

This assay deals with P388 leukemia ip, CD2F1 mice, survival T/C. The assay is described as follows: NCI In Vivo Anticancer Drug Screen. Data for tumor model P388 Leukemia (intraperitoneal) in CD2F1 (CDF1) mice. The settings on record: endpoint: median survival time, higher = longer survival. The gist of the method: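 Mice carrying the transplanted tumor received test compound or vehicle. Survival was recorded in each group, and the value is the treated-group measurement divided by that of the vehicle-treated control group.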

Setting [1] is: dose: 100.0 mg/kg/injection, schedule: Q04DX003 (ip), vehicle: saline with Tween-80.
Where [2] appears, read: dose: 200.0 mg/kg/injection, schedule: Q04DX003 (ip), vehicle: saline with Tween-80.
The mark [3] stands for this setting: dose: 400.0 mg/kg/injection, schedule: Q04DX003 (ip), vehicle: saline with Tween-80.
Where [4] appears, read: dose: 50.0 mg/kg/injection, schedule: Q01DX009 (ip), vehicle: saline with Tween-80.
Setting [5] is: dose: 100.0 mg/kg/injection, schedule: Q01DX009 (ip), vehicle: saline with Tween-80.
Where [6] appears, read: dose: 200.0 mg/kg/injection, schedule: Q01DX009 (ip), vehicle: saline with Tween-80.
The mark [7] stands for this setting: dose: 12.5 mg/kg/injection, schedule: Q01DX009 (ip), vehicle: saline with Tween-80.
The mark [8] stands for this setting: dose: 25.0 mg/kg/injection, schedule: Q01DX009 (ip), vehicle: saline with Tween-80.
The mark [9] stands for this setting: dose: 6.25 mg/kg/injection, schedule: Q01DX009 (ip), vehicle: saline with Tween-80.

With `C=CCOCC1CO1` (stereo unspecified), the T/C was 106 % of control (dose: 12.5 mg/kg/injection, schedule: Q01DX009 (ip), vehicle: saline); 97 % of control (dose: 25.0 mg/kg/injection, schedule: Q01DX009 (ip), vehicle: saline); 103 % of control (dose: 50.0 mg/kg/injection, schedule: Q01DX009 (ip), vehicle: saline); 100 % of control (dose: 50.0 mg/kg/injection, schedule: Q04DX003 (ip), vehicle: saline with Tween-80); 100 % of control (dose: 100.0 mg/kg/injection, schedule: Q01DX009 (ip), vehicle: saline); 90 % of control under setting [1]. Further, the T/C runs as follows: (dose: 132.0 mg/kg/injection, schedule: Q04DX003 (ip), vehicle: saline with Tween-80) 109 % of control; (dose: 200.0 mg/kg/injection, schedule: Q01DX009 (ip), vehicle: saline) 100 % of control; under setting [2], 109 % of control; (dose: 300.0 mg/kg/injection, schedule: Q04DX003 (ip), vehicle: saline with Tween-80) 122 % of control.

As for `CC12CC3CC(C)(C1)CC(OCCN)(C3)C2`, the T/C runs as follows: (dose: 60.0 mg/kg/injection, schedule: Q01DX005 (ip), vehicle: saline with Tween-80) 101 % of control; (dose: 120.0 mg/kg/injection, schedule: Q01DX005 (ip), vehicle: saline with Tween-80) 104 % of control.

`CC(C)(C)N1C(=O)[N+](C)(CCCCCC[N+]2(C)N=C([O-])N(C(C)(C)C)C2=O)N=C1[O-]` (stereo unspecified): the T/C is, setting by setting: under setting [1], 95 % of control; under setting [2], 100 % of control; under setting [3], 108 % of control.

As for `COC(=S)c1ccc(C(=S)OC)cc1`, the T/C runs as follows: under setting [4], 99 % of control; under setting [5], 105 % of control; under setting [6], 103 % of control.

On to `CCCC(=O)NNC(=O)c1ccccn1`, for which the T/C (dose: 25.0 mg/kg/injection, schedule: Q01DX009 (ip), vehicle: saline sonified) was 90 % of control; the T/C (dose: 50.0 mg/kg/injection, schedule: Q01DX009 (ip), vehicle: saline sonified) was 95 % of control; the T/C (dose: 100.0 mg/kg/injection, schedule: Q01DX009 (ip), vehicle: saline sonified) is 100 % of control.

On to `C(=N/c1ccccn1)/c1ccc(/C=N\c2ccccn2)cc1`, for which the T/C under setting [4] was 108 % of control; the T/C under setting [5] was 100 % of control; the T/C under setting [6] is 106 % of control; the T/C (dose: 400.0 mg/kg/injection, schedule: Q01DX009 (ip), vehicle: saline with Tween-80) was 116 % of control.

As to `CSCC(CO)NC(=O)/C=C/c1c(C)[nH]c(=O)[nH]c1=O` (stereo unspecified), the T/C is 86 % of control and 101 % of control (dose: 50.0 mg/kg/injection, schedule: Q01DX009 (ip), vehicle: other); 89 % of control and 111 % of control (dose: 100.0 mg/kg/injection, schedule: Q01DX009 (ip), vehicle: other); 94 % of control (dose: 200.0 mg/kg/injection, schedule: Q01DX009 (ip), vehicle: other); 88 % of control (dose: 400.0 mg/kg/injection, schedule: Q01DX009 (ip), vehicle: other).

On to `O=C1C(Cl)=C(c2ccccc2)C(=O)C(Cl)=C1c1ccccc1`, for which the T/C is 100 % of control under setting [7], 109 % of control under setting [8] and 109 % of control under setting [4].

Consider `Cc1cc(N)c2cc(NC(=O)CCCCCC(=O)Nc3ccc4nc(C)cc(N)c4c3)ccc2n1`, for which the T/C is, setting by setting: under setting [9], 100 % of control; under setting [7], 110 % of control; under setting [8], 118 % of control.

On to `CCC(C)C(NC(=O)c1ccccc1)C(=O)O` (stereo unspecified), for which the T/C was 90 % of control (dose: 50.0 mg/kg/injection, schedule: Q01DX005 (ip), vehicle: saline with Tween-80); 106 % of control (dose: 100.0 mg/kg/injection, schedule: Q01DX005 (ip), vehicle: saline with Tween-80); 97 % of control (dose: 200.0 mg/kg/injection, schedule: Q01DX005 (ip), vehicle: saline with Tween-80).

For `Nc1nc[nH]c(=O)c1NC=O`, the T/C is, setting by setting: (dose: 100.0 mg/kg/injection, schedule: Q04DX003 (ip), vehicle: saline) 120 % of control; (dose: 200.0 mg/kg/injection, schedule: Q04DX003 (ip), vehicle: saline) 100 % of control; (dose: 400.0 mg/kg/injection, schedule: Q04DX003 (ip), vehicle: saline) 110 % of control.

For `Nn1c(=O)[nH][nH]c1=O`, the T/C runs as follows: (dose: 25.0 mg/kg/injection, schedule: Q01DX009 (ip), vehicle: Klucel (hydroxypropylcellulose) (HPC)) 93 % of control; (dose: 50.0 mg/kg/injection, schedule: Q01DX009 (ip), vehicle: Klucel (hydroxypropylcellulose) (HPC)) 104 % of control; (dose: 100.0 mg/kg/injection, schedule: Q01DX009 (ip), vehicle: Klucel (hydroxypropylcellulose) (HPC)) 96 % of control; (dose: 200.0 mg/kg/injection, schedule: Q01DX009 (ip), vehicle: Klucel (hydroxypropylcellulose) (HPC)) 93 % of control.

In the case of `O=[N+]([O-])c1ccc(N=Nc2ccccc2)cc1`, the T/C under setting [1] was 109 % of control, the T/C under setting [2] was 100 % of control and the T/C under setting [3] is 100 % of control.

With `CN(C)[C](=[Au][Cl])c1ccccc1`, the T/C (dose: 25.0 mg/kg/injection, schedule: Q04DX002 (ip), vehicle: Klucel (hydroxypropylcellulose) (HPC)) is 109 % of control; the T/C (dose: 50.0 mg/kg/injection, schedule: Q04DX002 (ip), vehicle: Klucel (hydroxypropylcellulose) (HPC)) was 111 % of control; the T/C (dose: 100.0 mg/kg/injection, schedule: Q04DX002 (ip), vehicle: Klucel (hydroxypropylcellulose) (HPC)) was 108 % of control and 96 % of control.

As to `COc1cc2c(c(OC)c1OC)CCc1cn[nH]c1-2`, the T/C runs as follows: (dose: 100.0 mg/kg/injection, schedule: Q01DX001 (ip), vehicle: Klucel (hydroxypropylcellulose) (HPC)) 116 % of control; (dose: 200.0 mg/kg/injection, schedule: Q01DX001 (ip), vehicle: Klucel (hydroxypropylcellulose) (HPC)) 123 % of control; (dose: 400.0 mg/kg/injection, schedule: Q01DX001 (ip), vehicle: Klucel (hydroxypropylcellulose) (HPC)) 116 % of control.

`CCN(CC)c1c(C)nnc2c3cccnc3nn12`: the T/C (dose: 25.0 mg/kg/injection, schedule: Q01DX001 (ip), vehicle: saline with Tween-80) is 100 % of control; the T/C (dose: 50.0 mg/kg/injection, schedule: Q01DX001 (ip), vehicle: saline with Tween-80) is 103 % of control; the T/C (dose: 100.0 mg/kg/injection, schedule: Q01DX001 (ip), vehicle: saline with Tween-80) was 106 % of control and 97 % of control.

In the case of `CCC[CH2][Sn](=[S])[CH2]CCC`, the T/C (dose: 1.56 mg/kg/injection, schedule: Q01DX009 (ip), vehicle: other) is 116 % of control.

`O=C1c2ccccc2CN1Cc1ccc(Cl)c(Cl)c1`: the T/C was 96 % of control under setting [4], 89 % of control under setting [5] and 91 % of control under setting [6].

On to `CNC(=O)OCc1c(-c2ccccc2)c(-c2ccccc2)n(C)c1COC(=O)NC`, for which the T/C by setting is: (dose: 1.56 mg/kg/injection, schedule: Q01DX009 (ip), vehicle: distilled water + Tween-80) 102 % of control; (dose: 12.5 mg/kg/injection, schedule: Q01DX009 (ip), vehicle: distilled water + Tween-80) 154 % of control and 164 % of control; (dose: 25.0 mg/kg/injection, schedule: Q01DX009 (ip), vehicle: distilled water + Tween-80) 160 % of control and 174 % of control; (dose: 50.0 mg/kg/injection, schedule: Q01DX009 (ip), vehicle: distilled water + Tween-80) 165 % of control and 171 % of control.

Regarding `COCCC(=O)NC1CCCC[CH]1[Hg][Cl]` (stereo unspecified), the T/C (dose: 25.0 mg/kg/injection, schedule: Q04DX003 (ip), vehicle: Klucel (hydroxypropylcellulose) (HPC)) was 97 % of control.

With `CCC1=C[C@@H]2C[C@](C(=O)OC)(c3cc4c(cc3OC)N(C)[C@H]3[C@@](O)(C(=O)OC)[C@H](OC(C)=O)[C@]5(CC)C=CCN6CC[C@]43[C@@H]65)c3[nH]c4ccccc4c3CCN(C1)[C@@H]2O`, the T/C is, setting by setting: (dose: 2.5 mg/kg/injection, schedule: Q01DX001 (ip), vehicle: water) 117 % of control; (dose: 20.0 mg/kg/injection, schedule: Q01DX001 (ip), vehicle: water) 153 % of control and 159 % of control; (dose: 40.0 mg/kg/injection, schedule: Q01DX001 (ip), vehicle: water) 161 % of control and 170 % of control; (dose: 80.0 mg/kg/injection, schedule: Q01DX001 (ip), vehicle: water) 180 % of control; (dose: 160.0 mg/kg/injection, schedule: Q01DX001 (ip), vehicle: water) 93 % of control.

For `CC(Nc1nccs1)Nc1nccs1`, the T/C by setting is: under setting [9], 102 % of control and 96 % of control; under setting [7], 108 % of control and 98 % of control; under setting [8], 102 % of control and 97 % of control; under setting [4], 111 % of control; under setting [5], 109 % of control.
